Measured values: publication PMC12751025, “α‑Aminoboronic Acid Moieties in Boro Dipeptides Modulate Proteasome Subunit Selectivity and Provide Access to Compounds with Potent Anticancer and Anti-Inflammatory Activity” (Journal of Medicinal Chemistry, 2025)
In brackets after ≈: the same amount, converted by molar mass.

How the values were obtained:
LPS-stimulated PBMCs = experiment: Cytokine secretion, Cytometric Bead Array; format: cell-based, human; settings: for dose-dependent effects on cytokine release from LPS-stimulated PBMCs: dose–response curves (Figure S12)
Method: PBMCs (1.5 × 10^6/mL) were plated in culture media in 96-well round-bottom plates. After a 60 min treatment with compounds at 37 °C and 5% CO2, cells were stimulated with LPS (Escherichia coli, O111:B4, 1 μg/mL, Sigma) for 24 h. Supernatants were then collected and analyzed for cytokine release by Human Inflammatory Cytokine Cytometric Bead Array (BD Biosciences, New Jersey, USA).

PBMCs = experiment: Cytotoxicity MTS assay; format: cell-based, human; settings: 10, 50 and 250 nM, 24 h, MTS (Figure S1)
Method: Buffy coats from venous blood of anonymized healthy donors were purchased from Blood Transfusion Centre of Slovenia. PBMCs were isolated by density gradient centrifugation with Ficoll-Paque (Pharmacia, Sweden). The isolated cells were resuspended in RPMI 1640 medium (Sigma-Aldrich, St. Louis/MO, United States) supplemented with 10% heat-inactivated FBS (Gibco, ThermoFisher Scientific, Waltham/MA, United States), 2 mM L-glutamine (Sigma-Aldrich, St. Louis/MO, United States), 100 U/mL penicillin (Sigma-Aldrich, St. Louis/MO, United States), and 100 μg/mL streptomycin (Sigma-Aldrich, St. Louis/MO, United States).
Cytotoxicity was determined using the MTS cell proliferation assay (CellTiter 96 AQueous One Solution Cell Proliferation Assay, Promega, Wisconsin, USA), which measures mitochondrial metabolic activity as a surrogate for cell viability. The assay was performed according to the manufacturer protocol. The cytotoxicity was performed on HepG2, MCF-7, MDA-MB-231, MOLT-4, MM.1S, THP-1, RAJI cell lines and on HUVECs as well as PBMCs. The cells were seeded in 96-well plates (15.000–30.000 cells/well). After 24 h incubation at 5% CO2 and 37 °C, the cells were treated either with DMSO (negative control) or solutions of the tested compounds in DMSO. […] Cells were incubated for additional 2 h - 4 h, followed by the measurement of absorbance at 490 nm on the Tecan Spark microplate reader.

[1] = Human plasma protein binding, equilibrium dialysis; format: in vitro ADME; settings: for % of bound compound: human plasma, 1 μM, dialysis 5 h; for recovery at 5 h, 1 µM: human, pH 7.4; for recovery at 5 h, 1 µM / Stability [%]: plasma protein binding assay
Method: Human plasma protein binding
The assay was performed in a multiple-use 96-well dialysis unit (HTD96b dialyzer). Each individual well unit consisted of two chambers separated by a vertically aligned dialysis membrane of predetermined pore size (MWCO 14 kDa). 125 µL of non-diluted plasma spiked with the compound (1 μM, final DMSO and acetonitrile concentration was 0.005% and 1%, respectively) was added to one chamber and the same volume of PBS buffer pH 7.4 to the other chamber. HTD96b dialyzer was incubated with shaking (250 rpm) at 37 °C, 5% CO2, and a saturating humidity (~95%) for 5 h. For samples preparation, an aliquot of the content of each chamber had been mixed with the same volume of the blank opposite matrix. In order to define non-specific loss of the compound during this assay, standard solution was created by mixing an aliquot of spiked plasma with blank buffer without dialysis. Two aliquots of the standard solution were incubated with shaking (250 rpm) at 37 °C, 5% CO2, and a saturating humidity (~95%) for 5 h (recovery samples). The other two aliquots were immediately diluted with acetonitrile and stored at 4 °C until LC-MS/MS analysis (stability samples). All samples were diluted 5-fold with 90% acetonitrile with internal standard with subsequent plasma proteins sedimentation by centrifuging at 6000 rpm for 5 min. Supernatants were analyzed using HPLC system coupled with tandem mass spectrometer. […]

[2] = system: human umbilical vein endothelial cells; experiment: Cytotoxicity MTS assay; format: cell-based; settings: 10, 50 and 250 nM, 72 h, MTS (Figure S2)
Method: Cytotoxicity was determined using the MTS cell proliferation assay (CellTiter 96 AQueous One Solution Cell Proliferation Assay, Promega, Wisconsin, USA), which measures mitochondrial metabolic activity as a surrogate for cell viability. The assay was performed according to the manufacturer protocol. The cytotoxicity was performed on HepG2, MCF-7, MDA-MB-231, MOLT-4, MM.1S, THP-1, RAJI cell lines and on HUVECs as well as PBMCs. The cells were seeded in 96-well plates (15.000–30.000 cells/well). After 24 h incubation at 5% CO2 and 37 °C, the cells were treated either with DMSO (negative control) or solutions of the tested compounds in DMSO. After 24 or 72 h, MTS reagent was added. Cells were incubated for additional 2 h - 4 h, followed by the measurement of absorbance at 490 nm on the Tecan Spark microplate reader.

Kinetic solubility = format: physicochemical; settings: 25 °C; for solubility at 2 h / solubility kinetic at 2 h: phosphate-buffered saline, pH 7.4, aqueous buffer, kinetic from dmso stock; for solubility at 2 h: read-out: PBS solubility, pH 7.4; for solubility kinetic at 2 h: CSV column, unit inferred
Method: Briefly, using a 20 mM (10 mM for 5l) stock solution of the compound in 100% DMSO, dilutions were prepared to a theoretical concentration of 400 μM (200 μM for 5l) in duplicates in phosphate-buffered saline pH 7.4 (138 mM NaCl, 2.7 mM KCl, 10 mM K-phosphate) with 2% final DMSO. The experimental compound dilutions in PBS were further allowed to equilibrate at 25 °C on a thermostatic shaker for two hours and then filtered through HTS filter plates using a vacuum manifold. The filtrates of test compounds were diluted 2-fold with acetonitrile with 2% DMSO before measuring.
In parallel, using a 20 mM (10 mM for 5l) stock solution of the compound in 100% DMSO dilutions were prepared to theoretical concentrations of 0 μM (blank), […] (0 μM (blank), 10 μM, 25 50 μM, and 100 μM,μM for 5l) in 50% acetonitrile/PBS with 2% final DMSO to generate calibration curves. Ondansetron was used as a reference compound to control proper assay performance. 200 μL of each sample was transferred to a 96-well plate and measured in the 230-550 nm range with a 5 nm step. […]

β1i subunit of human iCP = β1i subunit of human iCP (Homo sapiens, UniProt P28065+P40306); experiment: IC50 determination with subunit-specific fluorogenic substrate Ac-PAL-AMC; settings: IC50 β1i, human iCP; mean of at least three experiments; NA: not active at 50 μM
Method: (§1) The measurements of the residual activity of control compounds were carried out at final compound concentrations of 1 μM in the assay buffer (50 mM Tris-HCl, 0.5 mM ethylenediaminetetraacetic acid (EDTA), pH 7.4). Stock solutions of the compounds were prepared in DMSO. To the 35 μL of solution of the compound in the buffer, 35 μL of 0.4 nM human iCP (South Bay Bio, San Jose, CA, USA) or human cCP (Boston Biochem, Inc., Cambridge, MA, USA) was added. For assays evaluating the activity of β2c and β2i, the buffer was modified by adding the proteasomal activator PA28β (Boston Biochem, Inc., Cambridge, MA, USA) at a final concentration of 6 nM. […] The substrates used were acetyl-Nle-Pro-Nle-Asp-7-amino-4-methylcoumarin (Ac-nLPnLD-AMC, Bachem, Bubendorf, Switzerland) for β1c, acetyl-Pro-Ala-Leu-7-amino-4-methylcoumarin (Ac-PAL-AMC, Boston Biochem, Inc., Cambridge, MA, USA) for β1i, acetyl-Arg-Leu-Arg-7-amino-4-methylcoumarin (Ac-RLR-AMC, Bachem, Bubendorf, Switzerland) for β2c and β2i, acetyl-Trp-Leu-Ala-7-amino-4-methylcoumarin (Ac-WLA-AMC, Bachem, Bubendorf, Switzerland) for β5c, and acetyl-Ala-Asn-Trp-7-amino-4-methylcoumarin (Ac-ANW-AMC, Bachem, Bubendorf, Switzerland) for β5i. Progress of the reaction was measured using a BioTek Synergy HT microplate reader, monitoring fluorescence at 460 nm (excitation at 360 nm) for 60 min at 37 °C. The initial linear ranges were used to calculate the reaction velocity and determine the residual activity.
(§2) The final assay mixtures contained 0.4 nM human iCP or cCP in assay buffer (50 mM Tris-HCl, 0.5 mM EDTA, pH 7.4, addition of PA28β for β2c and β2i subunits). […] After incubation at 37 °C for 30 min, the reaction was initiated by the addition of the substrate Ac-nLPnLD-AMC for β1c, Ac-PAL-AMC for β1i, Ac-RLR-AMC for β2c and β2i, Ac-WLA-AMC for β5c, and Ac-ANW-AMC for β5i. Fluorescence was monitored at 460 nm (excitation at 360 nm) for 60 min at 37 °C. The reaction progress was recorded and the initial linear phases were used to determine the velocity. The IC50 values were calculated using GraphPad Prism software (GraphPad Software, San Diego, CA, USA), and the results represent the mean values of at least three independent determinations.

β2i subunit of human iCP = β2i subunit of human iCP (Homo sapiens, UniProt P40306+P49720); experiment: IC50 determination with fluorogenic substrate Ac-RLR-AMC (PA28β added)
Method: as §1, §2

β5c subunit of human cCP = target: T1, β5c subunit of human cCP (Homo sapiens, UniProt P20618+P28074); experiment: IC50 determination with fluorogenic substrate Ac-WLA-AMC; format: biochemical; settings: human cCP; mean of at least three experiments; NA: not active at 50 μM
T1 construct: purchased Boston Biochem, Inc
Method: as §1, §2

β5i subunit of human iCP = β5i subunit of human iCP (Homo sapiens, UniProt P20618+P28062); experiment: IC50 determination with fluorogenic substrate Ac-ANW-AMC; settings: IC50 β5i, human iCP; mean of at least three experiments; NA: not active at 50 μM
Method: as §1, §2

β1c subunit of human cCP = target: T2, β1c subunit of human cCP (Homo sapiens, UniProt P28072+Q99436); experiment: IC50 determination with subunit-specific fluorogenic substrate Ac-nLPnLD-AMC; format: biochemical; settings: human cCP; mean of at least three experiments; NA: not active at 50 μM
T2 construct: purchased Boston Biochem, Inc
Method: as §1, §2

β2c subunit of human cCP = target: T3, β2c subunit of human cCP (Homo sapiens, UniProt P49720+Q99436); experiment: IC50 determination with fluorogenic substrate Ac-RLR-AMC (PA28β added); format: biochemical; settings: human cCP; mean of at least three experiments; NA: not active at 50 μM
T3 construct: purchased Boston Biochem, Inc
Method: Stock solutions of the compounds were prepared in DMSO. To the 35 μL of solution of the compound in the buffer, 35 μL of 0.4 nM human iCP (South Bay Bio, San Jose, CA, USA) or human cCP (Boston Biochem, Inc., Cambridge, MA, USA) was added. For assays evaluating the activity of β2c and β2i, the buffer was modified by adding the proteasomal activator PA28β (Boston Biochem, Inc., Cambridge, MA, USA) at a final concentration of 6 nM. […] The substrates used were acetyl-Nle-Pro-Nle-Asp-7-amino-4-methylcoumarin (Ac-nLPnLD-AMC, Bachem, Bubendorf, Switzerland) for β1c, acetyl-Pro-Ala-Leu-7-amino-4-methylcoumarin (Ac-PAL-AMC, Boston Biochem, Inc., Cambridge, MA, USA) for β1i, acetyl-Arg-Leu-Arg-7-amino-4-methylcoumarin (Ac-RLR-AMC, Bachem, Bubendorf, Switzerland) for β2c and β2i, acetyl-Trp-Leu-Ala-7-amino-4-methylcoumarin (Ac-WLA-AMC, Bachem, Bubendorf, Switzerland) for β5c, and acetyl-Ala-Asn-Trp-7-amino-4-methylcoumarin (Ac-ANW-AMC, Bachem, Bubendorf, Switzerland) for β5i. Progress of the reaction was measured using a BioTek Synergy HT microplate reader, monitoring fluorescence at 460 nm (excitation at 360 nm) for 60 min at 37 °C. The initial linear ranges were used to calculate the reaction velocity and determine the residual activity.
as §2

[3] = kinetic solubility, 2% DMSO, two hours, theoretical concentration 400 μM (200 μM for 5l)

Row | % of bound compound [1] | recovery at 5 h, 1 µM [1] | Stability [%] [1] | PBS solubility, pH 7.4 (Kinetic solubility; [3]) | solubility at 2 h (Kinetic solubility; [3]) | solubility kinetic at 2 h (Kinetic solubility) | IC50 (β1i subunit of human iCP) | IC50 (β2i subunit of human iCP) | IC50 (β5c subunit of human cCP) | IC50 (β5i subunit of human iCP) | IC50 (β1c subunit of human cCP) | IC50 (β2c subunit of human cCP) | Structure (SMILES) | dose-dependent effects on cytokine release from LPS-stimulated PBMCs (LPS-stimulated PBMCs) | cytotoxic effect on PBMCs (PBMCs) | cytotoxic effect on human umbilical vein endothelial cells [2] | Effect on secretion of cytokines in LPS-stimulated PBMCs (LPS-stimulated PBMCs; 250 nM, 1 h pretreatment, LPS 1 μg/mL, 24 h, IL-1, IL-6, IL-8, IL-10, TNF-α)
1 | 93% | 100% | 92% | > 200 μM | 399 µM (≈ 153 µg/mL) | 399 µM (≈ 153 µg/mL) |  |  |  |  |  |  | CC(C)C[C@H](NC(=O)[C@H](Cc1ccccc1)NC(=O)c1cnccn1)B(O)O [bortezomib, reference compound] | very comparable effects | more cytotoxic | more cytotoxic | 
2 | 91% | 93% | 86% |  | ≥ 200 µM | > 200 µM | 0.003 µM | 1 µM | 0.044 µM | 0.058 µM | 0.018 µM | 37.4 µM | O=C(N[C@@H](Cc1ccccc1)C(=O)N[C@H](B(O)O)C1CCCC1)c1cnccn1 [5l, ((R)-Cyclopentyl((S)-3-phenyl-2-(pyrazine-2-carboxamido)propanamido)methyl)boronic Acid] | very comparable effects |  |  | strongest effects
